Results from patent US20250099420A1, “SMALL MOLECULE MODULATORS OF GPR139 COMPLEX” (University of Florida Research Foundation, Incorporated, priority 2022, published 2025).
Like-named read-outs stand apart in the source and are kept apart here.

Key:
GPR139 = target: T1, GPR139 (Homo sapiens, UniProt Q6DWJ6); experiment: GPR139 Agonist titration / agonist counterscreen assay (calcium detection, HEK-GPR139 cells); format: cell-based; parameters: expressed in transfected cells; host or cells: HEK Aequorin cells, Maxcyte transient transfection; conditions: GPR139 Agonist Activity; for Averaged Max % Response (±St. Dev.): activity relative to known control; for EC50: read-out: EC50
T1 sequence (Q6DWJ6 1-353): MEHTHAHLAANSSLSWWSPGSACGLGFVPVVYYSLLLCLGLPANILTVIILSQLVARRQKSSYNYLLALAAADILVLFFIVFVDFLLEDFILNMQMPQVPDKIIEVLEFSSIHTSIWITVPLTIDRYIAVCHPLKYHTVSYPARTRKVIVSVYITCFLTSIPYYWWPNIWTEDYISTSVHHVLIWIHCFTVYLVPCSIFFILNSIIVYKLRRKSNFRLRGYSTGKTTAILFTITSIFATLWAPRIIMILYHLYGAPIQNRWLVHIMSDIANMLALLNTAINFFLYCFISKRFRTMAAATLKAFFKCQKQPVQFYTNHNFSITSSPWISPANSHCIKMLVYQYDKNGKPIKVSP
Experimental: GPR activity was assessed using a calcium detection assay. […] Negative control samples were treated with DMSO. […] Intracellular calcium was measured using Calcium 5.

parental HEK cells = experiment: HEK parental Agonist Counterscreen Assay (non-transfected cells); format: cell-based; conditions: for Averaged Max % Response (±St. Dev.): activity relative to known control
Source text: The high control for the agonist counterscreen was Forskolin not acetylcholine.

[1] = values printed in E-notation without unit
[2] = Homo sapiens, HEK293, HEK Agonist Activity section of Table 4 (parental HEK counterscreen)
[3] = HEK Agonist Activity section of Table 4 (parental HEK counterscreen)

SMILES	Averaged Max % Response (±St. Dev.) (GPR139)	Lipophilic Efficiency (logD) (GPR139; based on logD)	Lipophilic Efficiency (logP) (GPR139; based on logP)	Hill Slope (GPR139; fitted dose-response curve)	Efficiency Ligand (GPR139; ligand efficiency)	EC50 (GPR139; [1])	Efficiency Ligand (GPR139)	Hill Slope (GPR139)	Lipophilic Efficiency (logD) (GPR139)	Lipophilic Efficiency (logP) (GPR139)	EC50 (GPR139; HEK-GPR139 cells)	Lipophilic Efficiency (logD) (parental HEK cells; HEK Agonist Activity section)	Lipophilic Efficiency (logP) (parental HEK cells; HEK Agonist Activity section)	Averaged Max % Response (±St. Dev.) (parental HEK cells; HEK Agonist Activity section)	EC50 (parental HEK cells; [2])	EC50 (parental HEK cells; [3])	also measured
CCc1nn(CC(=O)NCc2cccc(Br)c2)c(=O)c2cc3occc3n12 [SR-01000099472]	105.06 ± 17.21%	5.32	5.32	0.88	0.39	26.3 nM	–	–	–	–	–	–	–	–	–	–	Lipophilic Efficiency (logD) (parental HEK cells; HEK Agonist Activity): 2.60; Lipophilic Efficiency (logP) (parental HEK cells; HEK Agonist Activity): 2.60; Averaged Max % Response (±St. Dev.) (parental HEK cells; HEK Agonist Activity): 10.79 ± 6.86%; EC50 (parental HEK cells; Homo sapiens, HEK293, HEK Agonist Activity, parental non-transfected HEK cells): > 14100 nM
O=C(Cn1ncn2c(cc3sccc32)c1=O)NCCc1ccc(Cl)cc1 [SR-01000099712]	90.08 ± 9.76%	–	–	–	–	–	0.33	1.73	3.73	3.73	839 nM	2.50	2.50	7.86 ± 5.01%	> 14100 nM	–	–
CCCc1cc(=O)n2[nH]c(NCc3ccccc3F)nc2n1 [SR-01000100493]	100.68 ± 11.72%	3.60	3.60	0.73	0.43	160 nM	–	–	–	–	–	1.65	1.65	4.54 ± 3.12%	–	> 14100 nM	–
Cc1ccc(Br)cc1S(=O)(=O)NCCC(=O)NCCc1sccc1C [SR-01000101329]	102.96 ± 12.58%	5.16	5.15	0.79	0.38	–	–	–	–	–	–	3.17	3.16	−2.50 ± 6.06%	> 14100 nM	–	–
COc1ccc(CCC(=O)Nc2ccc(/C(N)=N/O)cc2)cc1 [SR-01000103876]	114.46 ± 17.21%	4.50	4.50	0.82	0.41	179 nM	–	–	–	–	–	2.61	2.60	1.17 ± 3.96%	–	> 14100 nM	–
CC(C)CCNC(=O)C1C2C=CC3(CN(Cc4ccccc4Cl)C(=O)C13)O2 (stereo not drawn) [SR-01000104567]	119.91 ± 2.22%	5.19	5.19	0.32	0.40	19.8 nM	–	–	–	–	–	–	–	–	–	–	Lipophilic Efficiency (logD) (parental HEK cells; HEK Agonist Activity): 2.34; Lipophilic Efficiency (logP) (parental HEK cells; HEK Agonist Activity): 2.34; Averaged Max % Response (±St. Dev.) (parental HEK cells; HEK Agonist Activity): 8.02 ± 5.87%; EC50 (parental HEK cells; HEK Agonist Activity, parental non-transfected HEK cells): > 14100 nM
CC(NC(=O)CN1CCN(Cc2ccc(Cl)cc2)C1=O)c1ccccc1 (stereo not drawn) [SR-01000105214]	114.03 ± 9.34%	3.89	3.89	0.51	0.36	245 nM	–	–	–	–	–	2.13	2.13	−5.28 ± 2.10%	> 14100 nM	–	–
CSc1ccc(CCNC(=O)Cn2ncc3c(=O)oc4ccccc4c32)cc1 [SR-01000105999]	100.11 ± 8.55%	–	–	–	–	–	0.32	1.37	3.64	3.64	355 nM	2.04	2.04	4.15 ± 6.01%	> 14100 nM	–	–

The next lines start with results.

Averaged Max % Response (±St. Dev.) (GPR139)	Lipophilic Efficiency (logD) (GPR139; based on logD)	Lipophilic Efficiency (logP) (GPR139; based on logP)	Hill Slope (GPR139; fitted dose-response curve)	Efficiency Ligand (GPR139; ligand efficiency)	EC50 (GPR139; [1])	Efficiency Ligand (GPR139)	Hill Slope (GPR139)	Lipophilic Efficiency (logD) (GPR139)	Lipophilic Efficiency (logP) (GPR139)	EC50 (GPR139; HEK-GPR139 cells)	Lipophilic Efficiency (logD) (parental HEK cells; HEK Agonist Activity section)	Lipophilic Efficiency (logP) (parental HEK cells; HEK Agonist Activity section)	SMILES	Averaged Max % Response (±St. Dev.) (parental HEK cells; HEK Agonist Activity section)	EC50 (parental HEK cells; [2])	EC50 (parental HEK cells; [3])	also measured
96.96 ± 1.13%	–	–	–	–	–	0.34	1.43	3.26	3.26	732 nM	1.97	1.97	Cc1ccc2c(c1)-c1c(cnn1CC(=O)Nc1ncccc1C)CO2 [SR-01000106321]	6.49 ± 5.13%	–	> 14100 nM	–
84.13 ± 7.28%	–	–	–	–	–	0.34	0.90	3.50	3.50	853 nM	2.28	2.28	CCOC(=O)C1C2C=CC3(CN(C(C)c4ccc(Br)cc4)C(=O)C13)O2 (stereo not drawn) [SR-01000114492]	−1.32 ± 3.21%	–	> 14100 nM	–
93.61 ± 11.95%	4.21	4.21	1.06	0.34	184 nM	–	–	–	–	–	2.32	2.32	COc1ccc(C(C)N2CC34C=CC(O3)C(C(=O)OCC(C)C)C4C2=O)cc1 (stereo not drawn) [SR-01000114500]	4.75 ± 6.36%	–	> 14100 nM	–
68.12 ± 14.87%	–	–	–	–	–	0.30	1.07	3.46	3.46	3000 nM	2.79	2.79	O=C(CCS(=O)(=O)c1cccc2nonc12)NCCc1ccc(Cl)cc1 [SR-01000119565]	5.54 ± 5.16%	–	> 14100 nM	–
84.79 ± 6.25%	3.83	3.83	0.88	0.51	123 nM	–	–	–	–	–	1.77	1.77	O=C(NCCn1ccc2ccccc21)c1cccs1 [SR-01000124129]	−9.08 ± 5.27%	> 14100 nM	–	–
93.55 ± 12.47%	–	–	–	–	–	0.42	0.85	2.55	2.55	472 nM	1.08	1.08	O=C(NCCn1ccc2ccccc21)c1cccc(Cl)c1 [SR-01000124131]	−0.13 ± 10.83%	> 14100 nM	–	–
71.94 ± 4.54%	2.76	2.76	0.57	0.45	197 nM	–	–	–	–	–	0.91	0.91	O=C(NCCn1ccc2ccccc21)c1cccc(Br)c1 [SR-01000124135]	7.54 ± 4.78%	> 14100 nM	–	–
90.02 ± 28.06%	–	–	–	–	–	0.36	1.37	2.59	2.59	1000 nM	1.45	1.45	CC(Oc1ccccc1)C(=O)NCCn1ccc2ccccc21 (stereo not drawn) [SR-01000124163]	−3.45 ± 3.02%	> 14100 nM	–	–
